These results are taken from patent US20240228488A1 (TAKEDA PHARMACEUTICAL COMPANY LIMITED, priority 2021, published 2024).

Assay [1] has as its target human activated kallikrein enzyme (Homo sapiens, UniProt P03952). The experiment in a line: Plasma kallikrein inhibition, fluorogenic PFR-AMC substrate, 500 pM activated kallikrein format. The assay is classed as biochemical. Conditions: 500 pM activated kallikrein, 300 uM PFR-AMC, 30 min preincubation, 10 min reaction; read-out: Primary Dose Response Assay: Average EC50. Summed up: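 Fluorogenic readout (ex 380 / em 460 nm) after 10 min room-temperature reaction with 300 uM Pro-Phe-Arg-AMC substrate, following 30 min preincubation of inhibitors with 500 pM enzyme. Buffer: Tris pH 7.5, EDTA, NaCl, PEG-400, Triton X-100. Values given as EC50 ranges.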

The target of a further assay is T1, plasma kallikrein (Homo sapiens, UniProt P03952).
T1 construct: from tissue
T1 sequence (P03952 391-638 limits assumed): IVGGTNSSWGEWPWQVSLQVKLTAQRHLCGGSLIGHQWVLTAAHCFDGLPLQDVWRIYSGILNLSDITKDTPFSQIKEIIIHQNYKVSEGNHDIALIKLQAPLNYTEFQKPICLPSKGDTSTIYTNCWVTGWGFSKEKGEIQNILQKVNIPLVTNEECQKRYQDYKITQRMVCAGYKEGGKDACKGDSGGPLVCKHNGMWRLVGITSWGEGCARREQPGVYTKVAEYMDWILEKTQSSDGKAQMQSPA
T1 sequence (P03952 20-390 partner limits assumed): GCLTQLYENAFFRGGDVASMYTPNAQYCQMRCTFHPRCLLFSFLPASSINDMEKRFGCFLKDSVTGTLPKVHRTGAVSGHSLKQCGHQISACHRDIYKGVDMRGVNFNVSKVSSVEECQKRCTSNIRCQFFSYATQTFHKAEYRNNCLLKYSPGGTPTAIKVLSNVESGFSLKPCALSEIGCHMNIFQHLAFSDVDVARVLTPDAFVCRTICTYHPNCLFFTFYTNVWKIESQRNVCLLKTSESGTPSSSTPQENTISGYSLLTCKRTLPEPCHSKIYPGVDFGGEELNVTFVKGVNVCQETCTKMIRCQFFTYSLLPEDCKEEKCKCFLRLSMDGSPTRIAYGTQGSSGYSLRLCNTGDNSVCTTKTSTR
The experiment in a line: Neat human plasma assay, FXIIa contact pathway-activated, PFR-AMC substrate. The assay is classed as biochemical. Conditions: citrated human plasma 78% final, 10 nM human FXIIa, 100 μM PFR-AMC; read-out: Human Plasma Assay: IC90. The essentials: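 Compound inhibition of plasma kallikrein measured as PFR-AMC (100 μM) cleavage rate over 5 min at room temperature in 78% citrated human plasma activated with 10 nM FXIIa (Tris pH 7.5 buffer). IC50/IC90 from 4-parameter fit of rate versus inhibitor concentration.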

A value given as a limit tells only on which side of the number the result lay.

human activated kallikrein enzyme, sequence (P03952 391-638 limits assumed): as the sequence (P03952 391-638 limits assumed) above
human activated kallikrein enzyme, sequence (P03952 20-390 partner limits assumed): as the sequence (P03952 20-390 partner limits assumed) above

As usually defined, the EC50 is the concentration giving half of the maximal effect. The term IC90 denotes the point of the concentration-response curve where the effect stands at 90%. As to `Cc1cc(NC(=O)[C@H]2C[C@@H]2c2nccc(C)n2)cc(NCc2cn3cc(C4CC4)cc(N4CC(=O)N(C)C4=O)c3n2)n1` [Example I-639, (1S,2S)—N-(2-(((6-cyclopropyl-8-(3-methyl-2,4-dioxoimidazolidin-1-yl)imidazo[1,2-a]pyridin-2-yl)methyl)amino)-6-methylpyridin-4-yl)-2-(4-methylpyrimidin-2-yl)cyclopropane-1-carboxamide], the EC50 in assay [1] is less than 1 nM. The IC90 at plasma kallikrein was less than 400 nM.

Take `O=C(Nc1cc(NCc2cn3cc(C4CC4)cc(C4(O)COC4)c3n2)ccn1)[C@H]1C[C@@H]1c1cccc(Cl)c1` (racemic) [Example I-242, rac-(1S*,2S*)-2-(3-chlorophenyl)-N-(4-(((6-cyclopropyl-8-(3-hydroxyoxetan-3-yl)imidazo[1,2-a]pyridin-2-yl)methyl)amino)pyridin-2-yl)cyclopropane-1-carboxamide]: in assay [1], the EC50 is less than 1 nM. The IC90 on plasma kallikrein lay in the range of 1500 to 10000 nM.

On to `COCCN1CCN(c2cc(C3CC3)cn3cc(CNc4ccnc(NC(=O)[C@H]5C[C@@H]5c5cccc(Cl)c5)c4)nc23)CC1` [Example 599, (1S,2S)-2-(3-chlorophenyl)-N-(4-(((6-cyclopropyl-8-(4-(2-methoxyethyl)piperazin-1-yl)imidazo[1,2-a]pyridin-2-yl)methyl)amino)pyridin-2-yl)cyclopropane-1-carboxamide], for which the EC50 in assay [1] was less than 1 nM. The IC90 on plasma kallikrein was less than 400 nM.

`CN1C(=O)CN(c2cc(C3CC3)cn3cc(COc4cnnc(NC(=O)[C@H]5C[C@@H]5c5cccc(Cl)c5)c4)nc23)C1=O` [Example 557, (1S,2S)-2-(3-chlorophenyl)-N-(5-((6-cyclopropyl-8-(3-methyl-2,4-dioxoimidazolidin-1-yl)imidazo[1,2-a]pyridin-2-yl)methoxy)pyridazin-3-yl)cyclopropane-1-carboxamide]: the EC50 in assay [1] was less than 1 nM. On plasma kallikrein, the IC90 was in the range of 400 to 1500 nM.

As for `Cc1ccnc([C@H]2C[C@@H]2C(=O)Nc2cc(NCc3cn4cc(C5CC5)cc(N5CC6CC6C5=O)c4n3)ncn2)n1` (relative stereo) [Example 317, rac-(1S*,2S*)—N-(6-(((6-cyclopropyl-8-(2-oxo-3-azabicyclo[3.1.0]hexan-3-yl)imidazo[1,2-a]pyridin-2-yl)methyl)amino)pyrimidin-4-yl)-2-(4-methylpyrimidin-2-yl)cyclopropane-1-carboxamide], the EC50 in assay [1] was less than 1 nM. In addition, on plasma kallikrein, the IC90 is 1500 to 10000 nM.

`O=C(Nc1cc(NCc2cn3cc(C4CC4)cc(N4CC(=O)N(C5CC5)C4=O)c3n2)ncn1)[C@H]1C[C@@H]1c1cccc(Cl)c1` [Example 399, (1S,2S)-2-(3-chlorophenyl)-N-(6-(((6-cyclopropyl-8-(3-cyclopropyl-2,4-dioxoimidazolidin-1-yl)imidazo[1,2-a]pyridin-2-yl)methyl)amino)pyrimidin-4-yl)cyclopropane-1-carboxamide]: the EC50 in assay [1] lay in the range of 1 to 10 nM. The IC90 at plasma kallikrein fell in the range of 1500 to 10000 nM.

`Cc1ccnc([C@H]2C[C@@H]2C(=O)Nc2cc(NC(C)c3cn4cc(C5CC5)cc(N5CC(=O)N(C)C5=O)c4n3)ncn2)n1` (relative stereo) [Example 449, rac-(1S*,2S*)—N-(6-((1-(6-cyclopropyl-8-(3-methyl-2,4-dioxoimidazolidin-1-yl)imidazo[1,2-a]pyridin-2-yl)ethyl)amino)pyrimidin-4-yl)-2-(4-methylpyrimidin-2-yl)cyclopropane-1-carboxamide]: the EC50 in assay [1] was less than 1 nM. Moreover, the IC90 on plasma kallikrein lay in the range of 1500 to 10000 nM.

For `Cc1ccnc([C@H]2C[C@@H]2C(=O)Nc2cc(NCc3cn4cc(C5CC5)cc(N5CC(=O)N(C)C5=O)c4n3)ncn2)c1` (racemic) [Example 393, rac-(1S*,2S*)-N-(6-(((6-cyclopropyl-8-(3-methyl-2,4-dioxoimidazolidin-1-yl)imidazo[1,2-a]pyridin-2-yl)methyl)amino)pyrimidin-4-yl)-2-(4-methylpyridin-2-yl)cyclopropane-1-carboxamide], in assay [1], the EC50 is less than 1 nM. On plasma kallikrein, the IC90 is 400 to 1500 nM.

`O=C(Nc1cc(NCc2cn3cc(C4CC4)ccc3n2)ccn1)[C@H]1C[C@@H]1c1cc(Cl)ccn1` (racemic) [Example I-268, rac-(1S*,2S*)-2-(4-chloropyridin-2-yl)-N-(4-(((6-cyclopropylimidazo[1,2-a]pyridin-2-yl)methyl)amino)pyridin-2-yl)cyclopropane-1-carboxamide]: the EC50 in assay [1] was less than 1 nM. In addition, the IC90 at plasma kallikrein is 10000 to 48000 nM.

Consider `COCc1cnc(NC(=O)[C@H]2C[C@@H]2c2nccc(C)n2)nc1NCc1cn2cc(C3CC3)cc(N3CC(=O)N(C)C3=O)c2n1` (racemic) [Example 621, rac-(1S*,2S*)—N-(4-(((6-cyclopropyl-8-(3-methyl-2,4-dioxoimidazolidin-1-yl)imidazo[1,2-a]pyridin-2-yl)methyl)amino)-5-(methoxymethyl)pyrimidin-2-yl)-2-(4-methylpyrimidin-2-yl)cyclopropane-1-carboxamide], for which the EC50 in assay [1] is less than 1 nM. Moreover, the IC90 at plasma kallikrein is less than 400 nM.

Consider `Cc1ccnc([C@H]2C[C@@H]2C(=O)Nc2cc(N3C[C@@H](O)C[C@@H]3c3cn4cc([C@H]5C[C@@H]5C)ccc4n3)ncn2)n1` (relative stereo) [Example 470, (1S,2S)-N-(6-((2R,4S)-4-hydroxy-2-(6-((1S*,2S*)-2-methylcyclopropyl)imidazo[1,2-a]pyridin-2-yl)pyrrolidin-1-yl)pyrimidin-4-yl)-2-(4-methylpyrimidin-2-yl)cyclopropane-1-carboxamide], for which, in assay [1], the EC50 fell in the range of 1 to 10 nM. Besides, on plasma kallikrein, the IC90 fell in the range of 1500 to 10000 nM.

As to `Cc1ccnc([C@H]2C[C@@H]2C(=O)Nc2cc(N3C[C@@H](O)C[C@@H]3c3cn4cc(C5CC5)ccc4n3)ncn2)c1` (relative stereo) [Example 472, rac-(1S*,2S*)-N-(6-((2R,4S)-2-(6-cyclopropylimidazo[1,2-a]pyridin-2-yl)-4-hydroxypyrrolidin-1-yl)pyrimidin-4-yl)-2-(4-methylpyridin-2-yl)cyclopropane-1-carboxamide], the EC50 in assay [1] was 1 to 10 nM. For the same compound, at plasma kallikrein, the IC90 lay within 1500 to 10000 nM.

As for `Cc1cncc([C@H]2C[C@@H]2C(=O)Nc2cc(NCc3cn4cc(C5CC5)cc(N5CC(=O)N(C)C5=O)c4n3)ncn2)n1` (racemic) [Example 498, rac-(1S*,2S*)-N-(6-(((6-cyclopropyl-8-(3-methyl-2,4-dioxoimidazolidin-1-yl)imidazo[1,2-a]pyridin-2-yl)methyl)amino)pyrimidin-4-yl)-2-(6-methylpyrazin-2-yl)cyclopropane-1-carboxamide], the EC50 in assay [1] is less than 1 nM. In addition, the 90% effect concentration (IC90) on plasma kallikrein lay within 400 to 1500 nM.

On to `Cc1ccnc([C@H]2C[C@@H]2C(=O)Nc2nccc(NCc3cn4cc(C5CC5)cc(N5CC(=O)N(C)C5=O)c4n3)n2)n1` (racemic) [Example 520, rac-(1S*,2S*)-N-(4-(((6-cyclopropyl-8-(3-methyl-2,4-dioxoimidazolidin-1-yl)imidazo[1,2-a]pyridin-2-yl)methyl)amino)pyrimidin-2-yl)-2-(4-methylpyrimidin-2-yl)cyclopropane-1-carboxamide], for which the EC50 in assay [1] was less than 1 nM. In addition, the IC90 at plasma kallikrein was less than 400 nM.

With `CN1CC(=O)N(c2cc(C3CC3)cn3cc(CNc4cc(NC(=O)[C@H]5C[C@@H]5c5cccc(Cl)c5)ncn4)nc23)CC1=O` [Example 404, (1S,2S)-2-(3-chlorophenyl)-N-(6-(((6-cyclopropyl-8-(4-methyl-2,5-dioxopiperazin-1-yl)imidazo[1,2-a]pyridin-2-yl)methyl)amino)pyrimidin-4-yl)cyclopropane-1-carboxamide], the EC50 in assay [1] was less than 1 nM. Further, the IC90 at plasma kallikrein fell in the range of 400 to 1500 nM.

For `O=C1CN(c2cc(C3CC3)cn3cc([C@H]4C[C@H](O)CN4c4cc(NC(=O)[C@H]5C[C@@H]5c5cc(Cl)ccn5)ncn4)nc23)C(=O)N1` [Example 475, (1S,2S)-2-(4-chloropyridin-2-yl)-N-(6-((2R,4S)-2-(6-cyclopropyl-8-(2,4-dioxoimidazolidin-1-yl)imidazo[1,2-a]pyridin-2-yl)-4-hydroxypyrrolidin-1-yl)pyrimidin-4-yl)cyclopropane-1-carboxamide], the EC50 in assay [1] was less than 1 nM. Moreover, at plasma kallikrein, the IC90 was less than 400 nM.

As for `O=C1CN(c2cc(C3CC3)cn3cc(CNc4ccnc(NC(=O)[C@H]5C[C@@H]5c5cc(Cl)ccn5)n4)nc23)C(=O)N1` (racemic) [Example 521, rac-(1S*,2S*)-2-(4-chloropyridin-2-yl)-N-(4-(((6-cyclopropyl-8-(2,4-dioxoimidazolidin-1-yl)imidazo[1,2-a]pyridin-2-yl)methyl)amino)pyrimidin-2-yl)cyclopropane-1-carboxamide], in assay [1], the EC50 was less than 1 nM. Also, the IC90 on plasma kallikrein lay in the range of 400 to 1500 nM.

`O=C(Nc1cc(NCc2cn3cc(C4CC4)cc(CO)c3n2)ccn1)[C@H]1C[C@@H]1c1cccc(Cl)c1` [Example 99, (1S,2S)-2-(3-chlorophenyl)-N-(4-(((6-cyclopropyl-8-(hydroxymethyl)imidazo[1,2-a]pyridin-2-yl)methyl)amino)pyridin-2-yl)cyclopropane-1-carboxamide]: the EC50 in assay [1] is less than 1 nM. The IC90 on plasma kallikrein is 400 to 1500 nM.

Turning to `Cc1ccnc([C@H]2C[C@@H]2C(=O)Nc2cc(NCc3cn4cc(C5CC5)cc(N5CC(=O)N(C)C5=O)c4n3)ncn2)n1` (racemic) [Example I-259, rac-(1S*,2S*)—N-(6-(((6-cyclopropyl-8-(3-methyl-2,4-dioxoimidazolidin-1-yl)imidazo[1,2-a]pyridin-2-yl)methyl)amino)pyrimidin-4-yl)-2-(4-methylpyrimidin-2-yl)cyclopropane-1-carboxamide], the EC50 in assay [1] is less than 1 nM. Moreover, on plasma kallikrein, the IC90 is less than 400 nM.
